In the Deep4Chem optical property database:
Blank lines part the entries; values can stand above or below the compound they belong to.

Assay: solvent given as SMILES

Compound: CC(C)[Si](C#Cc1ccc(C#C[Si](C(C)C)(C(C)C)C(C)C)c2nc3cc4c(cc3nc12)[C@H]1c2ccccc2[C@@H]4c2ccccc21)(C(C)C)C(C)C
- fluorescence lifetime (in CCCCCC): 3.1 ns
- fluorescence lifetime (in ClCCl): 3.4 ns

Compound: COc1ccc2c(c1)c1c(OC)c3ccccc3c(OC)c1n2C
- fluorescence lifetime (in C1CCCCC1): 24.1 ns
- fluorescence lifetime (in CC#N): 31 ns
- fluorescence lifetime (in CO): 30.7 ns
- fluorescence lifetime (in ClCCl): 27.1 ns

Compound: CC(C)(C)NS(=O)(=O)c1ccc2c(c1)C(=O)/C(=C1\Sc3ccc(S(=O)(=O)NC(C)(C)C)cc3C1=O)S2
- fluorescence lifetime (in C1COCCO1): 12.4 ns
- fluorescence lifetime (in CN(C)C=O): 8.33 ns
- fluorescence lifetime (in CS(C)=O): 0.07 ns

Compound: Cc1ccc(C2=C3C=C(I)C=[N+]3[B-](F)(F)n3c2cc(I)c3I)cc1
- fluorescence lifetime (in C1CCCCC1): 0.327 ns
- fluorescence lifetime (in CC#N): 0.142 ns
- fluorescence lifetime (in CCO): 0.196 ns
- fluorescence lifetime (in CCOC(C)=O): 0.207 ns
- fluorescence lifetime (in CO): 0.179 ns
- fluorescence lifetime (in OCC(F)(F)F): 0.185 ns

Compound: O=C(O)CCCCCn1c2ccc(Br)cc2c(=O)c2cc3c(cc21)c(=O)c1cc(Br)ccc1n3CCCCCC(=O)O
- fluorescence lifetime (in CO): 17.3 ns

Compound: C(=C\c1cc(/C=C/c2ccc(-n3c4ccccc4c4ccccc43)cc2)cc(/C=C/c2ccc(-n3c4ccccc4c4ccccc43)cc2)c1)/c1ccc(-n2c3ccccc3c3ccccc32)cc1
- fluorescence lifetime (in C1CCOC1): 4.56 ns
- fluorescence lifetime (in CC#N): 3.84 ns
- fluorescence lifetime (in Cc1ccccc1): 3.41 ns
- fluorescence lifetime (in ClCCl): 3.39 ns

Compound: CC(C)(C)NC(=O)c1cc2ccc3cccc4ccc(c1C(=O)NC(C)(C)C)c2c34
- fluorescence lifetime (in ClC(Cl)Cl): 17.2 ns

Compound: CCn1c2ccccc2c2c3nsnc3c3c4ccccc4n(CC)c3c21
- fluorescence lifetime (in CN(C)C=O): 1.07 ns
- fluorescence lifetime (in Cc1ccccc1): 0.97 ns
- fluorescence lifetime (in ClCCl): 1 ns

Compound: F[B-]1(F)n2c(Nc3cccc4cccnc34)ccc2C(c2ccccc2)=C2C=CC(Cl)=[N+]21
- fluorescence lifetime (in C1CCCCC1): 3.21 ns
- fluorescence lifetime (in Cc1ccccc1): 0.82 ns

Compound: CCCCOC(=O)c1cc(Cl)c2c3c(Cl)cc4c5c(cc(Cl)c(c6c(Cl)cc(C(=O)OCCCC)c1c26)c53)C(=O)N(c1c(C(C)C)cccc1C(C)C)C4=O
- fluorescence lifetime (in Cc1ccccc1): 4.86 ns

Compound: O=P1(c2ccccc2)c2cc(N3c4ccccc4Sc4ccccc43)ccc2-c2ccc(N3c4ccccc4Sc4ccccc43)cc21
- fluorescence lifetime (in c1ccc2c(c1)c1ccccc1n2-c1ccc(-c2ccc(-n3c4ccccc4c4ccccc43)cc2)cc1): 46.1 ns

Compound: CCN1C(=O)C(C2C(=O)c3c4ccccc4cc4cc5ccccc5c2c34)SC1=S (stereo unspecified)
- fluorescence lifetime (in C1CCOC1): 11.8 ns
- fluorescence lifetime (in CC#N): 7.8 ns
- fluorescence lifetime (in CCCCCC): 12.8 ns
- fluorescence lifetime (in Cc1ccccc1): 13.2 ns
- fluorescence lifetime (in ClCCl): 10.4 ns

Compound: Cc1ccc(-c2ccc(/C=C/c3ccc(Br)n3C)cn2)nc1
- fluorescence lifetime (in CC#N): 0.66 ns

Compound: CCN(CC)c1ccc(C=Cc2nc3nc4ccccc4nc3s2)cc1
- fluorescence lifetime (in CCCCCCC(C)O): 0.991 ns
- fluorescence lifetime (in CCOC(C)=O): 1.36 ns
- fluorescence lifetime (in CO): 0.05 ns
- fluorescence lifetime (in CS(C)=O): 0.42 ns
- fluorescence lifetime (in Cc1ccccc1): 0.27 ns
- fluorescence lifetime (in ClC(Cl)Cl): 1.31 ns
- fluorescence lifetime (in ClCCl): 1.62 ns

Compound: COc1c2ccccc2c(OC)c2c1c1cccc(OC)c1n2C
- fluorescence lifetime (in C1CCCCC1): 21.8 ns
- fluorescence lifetime (in CC#N): 26.7 ns
- fluorescence lifetime (in CO): 25.2 ns
- fluorescence lifetime (in ClCCl): 22 ns

Compound: COC(=O)[C@@]12N=N[C@@](C(=O)OC)(C3[C@H]1C3(C)C)[C@H]1[C@@H]2C1(C)C (stereo partly specified)
- fluorescence lifetime (in CC#N): 101 ns

Compound: c1ccc2c(c1)CCc1ccccc1N2c1c2ccccc2cc2ccccc12
- fluorescence lifetime (in Cc1ccccc1): 41 ns

Now from value to compound:

- fluorescence lifetime (in C1CCOC1): 1.7 ns
- fluorescence lifetime (in CC#N): 1.66 ns
- fluorescence lifetime (in CN(C)C=O): 1.86 ns
- fluorescence lifetime (in ClC(Cl)Cl): 1.78 ns
- fluorescence lifetime (in c1ccccc1): 1.74 ns
Compound: CN(C)c1ccc(C#Cc2ccc(C#Cc3ccc(C#Cc4ccccc4C#N)cc3C#N)cc2C#N)cc1

- fluorescence lifetime (in ClC(Cl)Cl): 1.58 ns
Compound: COc1ccc(C2=Cc3c4ccccc4c4ccccc4[n+]3[B-](F)(F)O2)cc1

- fluorescence lifetime (in ClC(Cl)Cl): 2.73 ns
Compound: N#CC(C#N)=Cc1ccc(-c2ccc(N(c3ccccc3)c3ccccc3)cc2)o1

- fluorescence lifetime (in ClCCl): 6.91 ns
Compound: Cc1cc(C)n2c1C=C1c3ccccc3C(c3cccn3C)=[N+]1[B-]2(F)F

- fluorescence lifetime (in C1CCCCC1): 61.8 ns
- fluorescence lifetime (in CC#N): 26.2 ns
- fluorescence lifetime (in CO): 41.9 ns
- fluorescence lifetime (in ClC(Cl)Cl): 36.1 ns
Compound: CC1(C)CC(NCc2ccc3ccc4cccc5ccc2c3c45)CC(C)(C)N1

- fluorescence lifetime (in C1CCOC1): 0.64 ns
- fluorescence lifetime (in CCCCCC): 5.4 ns
- fluorescence lifetime (in c1ccccc1): 2.14 ns
Compound: O=C1OC(=O)c2ccc(N(c3ccccc3)c3c4ccccc4cc4ccccc34)c3cccc1c23

- fluorescence lifetime (in ClCCl): 3.95 ns
Compound: CC(C)c1cccc(C(C)C)c1N1C(=O)c2cccc3c(Oc4ccc(Cl)cc4)ccc(c23)C1=O

- fluorescence lifetime (in ClC(Cl)Cl): 3.89 ns
Compound: C(#Cc1ccccc1)c1ccccc1

- fluorescence lifetime (in C1CCCCC1): 7 ns
Compound: Cc1cc(C)c(B(c2c(C)cc(C)cc2C)c2cc3cc(N(C)C)c4ccccc4c3c3c2ccc2ccccc23)c(C)c1

- fluorescence lifetime (in c1cc(-n2c3ccccc3c3ccccc32)cc(-n2c3ccccc3c3ccccc32)c1): 7.8 ns
Compound: COc1ccc(-c2ccc3c(c2)c2cc(-c4ccc(OC)cc4)ccc2n3-c2ccc(C(=O)c3ccc4sc5ccccc5c4c3)cc2)cc1
